Calls of active or inactive are those of the source. No cut-off for these calls is given here.
Assays:
[1] = molecular target: Fibroblast growth factor receptor (Homo sapiens, UniProt P22607+P11362+P22455+P21802); assay: Inhibition of FGFR (unknown origin) incubated for 1 hr by mobility shift assay; assay type: protein assay
[2] = AUCt in Sprague-Dawley rat at 10 mg/kg, po by UPLC/MS/MS analysis; assay type: ADME, organism-based; details: in vivo
[3] = molecular target: T1, Proto-oncogene tyrosine-protein kinase ROS (Homo sapiens, UniProt P08922)
T1 sequence (P08922 whole entry): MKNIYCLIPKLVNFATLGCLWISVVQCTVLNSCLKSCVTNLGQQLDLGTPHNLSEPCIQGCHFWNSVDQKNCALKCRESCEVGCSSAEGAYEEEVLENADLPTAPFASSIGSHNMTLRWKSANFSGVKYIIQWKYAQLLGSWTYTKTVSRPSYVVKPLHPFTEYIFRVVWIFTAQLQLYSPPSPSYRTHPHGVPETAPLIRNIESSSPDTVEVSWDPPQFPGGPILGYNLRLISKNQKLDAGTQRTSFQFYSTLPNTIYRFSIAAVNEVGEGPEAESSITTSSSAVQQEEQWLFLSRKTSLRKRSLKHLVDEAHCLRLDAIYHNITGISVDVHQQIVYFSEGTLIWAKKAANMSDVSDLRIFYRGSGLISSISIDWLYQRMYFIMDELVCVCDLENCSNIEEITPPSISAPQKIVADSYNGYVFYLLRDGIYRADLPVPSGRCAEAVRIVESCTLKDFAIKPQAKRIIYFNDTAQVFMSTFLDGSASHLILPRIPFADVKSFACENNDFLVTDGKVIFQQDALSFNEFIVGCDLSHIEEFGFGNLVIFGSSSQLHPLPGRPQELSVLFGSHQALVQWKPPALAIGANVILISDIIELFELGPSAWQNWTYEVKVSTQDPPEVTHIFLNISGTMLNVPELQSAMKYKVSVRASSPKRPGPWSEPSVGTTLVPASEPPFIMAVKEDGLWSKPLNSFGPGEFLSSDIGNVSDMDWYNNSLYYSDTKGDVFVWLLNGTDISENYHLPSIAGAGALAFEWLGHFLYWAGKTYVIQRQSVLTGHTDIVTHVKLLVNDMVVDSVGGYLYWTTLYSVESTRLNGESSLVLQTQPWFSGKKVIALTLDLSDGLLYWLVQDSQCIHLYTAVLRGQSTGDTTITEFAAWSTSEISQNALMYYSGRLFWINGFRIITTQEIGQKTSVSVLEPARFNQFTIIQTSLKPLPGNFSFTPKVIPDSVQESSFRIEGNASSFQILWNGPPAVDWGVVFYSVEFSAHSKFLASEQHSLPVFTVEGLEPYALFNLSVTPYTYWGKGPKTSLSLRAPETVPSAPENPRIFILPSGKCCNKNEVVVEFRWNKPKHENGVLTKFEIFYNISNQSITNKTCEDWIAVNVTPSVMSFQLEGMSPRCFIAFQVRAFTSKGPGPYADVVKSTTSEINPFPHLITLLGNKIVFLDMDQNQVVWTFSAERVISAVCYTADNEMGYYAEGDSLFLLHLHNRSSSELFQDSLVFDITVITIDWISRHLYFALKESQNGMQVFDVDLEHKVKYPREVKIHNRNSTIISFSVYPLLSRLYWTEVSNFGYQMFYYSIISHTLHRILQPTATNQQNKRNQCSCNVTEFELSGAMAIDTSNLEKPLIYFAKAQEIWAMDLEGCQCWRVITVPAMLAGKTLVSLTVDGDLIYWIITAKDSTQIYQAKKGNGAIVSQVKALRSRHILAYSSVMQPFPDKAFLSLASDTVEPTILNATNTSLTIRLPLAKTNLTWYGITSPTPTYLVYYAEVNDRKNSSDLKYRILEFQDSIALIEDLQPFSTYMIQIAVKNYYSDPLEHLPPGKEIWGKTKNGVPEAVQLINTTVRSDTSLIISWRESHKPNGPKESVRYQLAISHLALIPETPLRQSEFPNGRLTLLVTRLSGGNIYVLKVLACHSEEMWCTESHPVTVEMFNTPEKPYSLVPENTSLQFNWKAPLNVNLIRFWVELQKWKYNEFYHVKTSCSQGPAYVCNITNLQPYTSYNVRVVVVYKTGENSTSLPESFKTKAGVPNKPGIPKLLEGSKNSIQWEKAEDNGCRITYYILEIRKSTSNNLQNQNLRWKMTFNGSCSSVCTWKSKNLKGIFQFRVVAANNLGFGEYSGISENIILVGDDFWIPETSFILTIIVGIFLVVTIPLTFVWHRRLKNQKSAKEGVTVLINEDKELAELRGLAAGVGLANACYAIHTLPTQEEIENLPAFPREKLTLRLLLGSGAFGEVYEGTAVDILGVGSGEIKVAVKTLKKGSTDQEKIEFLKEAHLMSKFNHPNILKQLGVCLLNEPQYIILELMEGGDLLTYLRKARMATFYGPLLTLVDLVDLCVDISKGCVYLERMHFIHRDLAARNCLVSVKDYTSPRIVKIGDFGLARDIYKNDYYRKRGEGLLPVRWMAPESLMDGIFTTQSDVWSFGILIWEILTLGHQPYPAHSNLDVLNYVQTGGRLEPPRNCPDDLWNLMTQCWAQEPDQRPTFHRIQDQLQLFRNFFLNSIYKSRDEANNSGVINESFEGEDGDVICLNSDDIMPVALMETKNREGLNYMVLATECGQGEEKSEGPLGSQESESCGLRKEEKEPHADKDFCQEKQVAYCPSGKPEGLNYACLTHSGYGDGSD

[4] = molecular target: T2, ALK tyrosine kinase receptor (Homo sapiens, UniProt Q9UM73)
Description: Inhibition of N-terminal GST-tagged human ALK cytoplasmic domain (1058 to 1620 residues) expressed in Baculovirus expression system using srctide as substrate incubated for 1 hr by mobility shift assay

[5] = molecular target: ALK tyrosine kinase receptor (Homo sapiens, UniProt Q9UM73, L1196M)
Sequence of ALK tyrosine kinase receptor (Homo sapiens, UniProt Q9UM73, L1196M) (Q9UM73 19-1620 L1196M limits assumed): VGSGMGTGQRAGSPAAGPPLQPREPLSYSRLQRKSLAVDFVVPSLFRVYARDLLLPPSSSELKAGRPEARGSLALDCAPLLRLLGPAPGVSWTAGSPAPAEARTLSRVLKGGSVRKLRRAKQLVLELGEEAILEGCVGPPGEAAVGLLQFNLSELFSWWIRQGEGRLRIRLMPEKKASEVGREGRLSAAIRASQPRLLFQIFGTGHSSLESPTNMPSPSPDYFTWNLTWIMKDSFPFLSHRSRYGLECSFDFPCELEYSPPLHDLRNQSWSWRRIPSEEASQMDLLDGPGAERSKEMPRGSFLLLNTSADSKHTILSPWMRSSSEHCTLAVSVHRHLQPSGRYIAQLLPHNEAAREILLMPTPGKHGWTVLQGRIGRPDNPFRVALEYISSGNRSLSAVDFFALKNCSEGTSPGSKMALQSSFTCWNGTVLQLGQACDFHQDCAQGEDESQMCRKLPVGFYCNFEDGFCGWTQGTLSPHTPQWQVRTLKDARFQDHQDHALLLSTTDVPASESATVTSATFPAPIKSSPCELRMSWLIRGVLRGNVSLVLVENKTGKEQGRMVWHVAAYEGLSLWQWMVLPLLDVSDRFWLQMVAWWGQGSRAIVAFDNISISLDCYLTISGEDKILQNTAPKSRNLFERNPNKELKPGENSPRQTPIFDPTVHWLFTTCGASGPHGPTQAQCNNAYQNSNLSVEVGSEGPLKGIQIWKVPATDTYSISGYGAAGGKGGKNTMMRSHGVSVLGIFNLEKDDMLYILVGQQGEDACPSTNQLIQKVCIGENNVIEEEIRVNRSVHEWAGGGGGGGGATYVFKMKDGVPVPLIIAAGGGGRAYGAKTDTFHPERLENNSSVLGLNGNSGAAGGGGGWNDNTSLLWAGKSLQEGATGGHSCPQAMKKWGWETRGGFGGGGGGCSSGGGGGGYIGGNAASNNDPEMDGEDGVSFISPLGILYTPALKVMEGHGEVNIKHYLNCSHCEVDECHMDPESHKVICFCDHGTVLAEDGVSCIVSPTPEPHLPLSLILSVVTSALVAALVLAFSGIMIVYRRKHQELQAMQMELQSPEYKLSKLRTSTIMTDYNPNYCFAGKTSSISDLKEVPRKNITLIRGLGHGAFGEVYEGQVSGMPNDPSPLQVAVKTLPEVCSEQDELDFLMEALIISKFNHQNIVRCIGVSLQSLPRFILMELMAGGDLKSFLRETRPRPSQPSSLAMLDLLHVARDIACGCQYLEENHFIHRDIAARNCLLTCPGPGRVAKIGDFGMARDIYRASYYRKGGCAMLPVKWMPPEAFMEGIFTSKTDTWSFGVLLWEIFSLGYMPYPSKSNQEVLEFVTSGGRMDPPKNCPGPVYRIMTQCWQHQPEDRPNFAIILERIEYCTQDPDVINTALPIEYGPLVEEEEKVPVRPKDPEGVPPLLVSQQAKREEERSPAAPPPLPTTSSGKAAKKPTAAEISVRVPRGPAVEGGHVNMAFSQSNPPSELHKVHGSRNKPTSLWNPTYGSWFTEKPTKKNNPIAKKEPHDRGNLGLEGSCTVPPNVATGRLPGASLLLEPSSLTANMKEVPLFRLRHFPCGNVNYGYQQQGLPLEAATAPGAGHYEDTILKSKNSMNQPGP

[6] = molecular target: ALK tyrosine kinase receptor (Homo sapiens, UniProt Q9UM73, G1202R)
Sequence of ALK tyrosine kinase receptor (Homo sapiens, UniProt Q9UM73, G1202R) (Q9UM73 19-1620 G1202R limits assumed): as the sequence (Q9UM73 19-1620 L1196M limits assumed) above, with M1178L, G1184R counted along it

[7] = system: ALK tyrosine kinase receptor (Homo sapiens), Q9UM73 [G1202R]; assay: Potency index, ratio of IC50 for ceritinib to IC50 for test compound for inhibition of N-terminal GST-tagged human ALK G1202R mutant cytoplasmic domain (1058 to 1620 residues) expressed in baculovirus expression system using srctide as substrate incubated for 1 hr by mobility shift assay
[8] = molecular target: Hepatocyte growth factor receptor (Homo sapiens, UniProt P08581); assay: Inhibition of N-terminal GST-tagged human c-MET cytoplasmic domain (956 to 1390 residues) expressed in Baculovirus expression system using srctide as substrate incubated for 1 hr by mobility shift assay
[9] = Inhibition of PI3K (unknown origin) incubated for 1 hr by mobility shift assay; design: species or system Homo sapiens
[10] = molecular target: Cyclin-dependent kinase 4 (Homo sapiens, UniProt P11802); assay: Inhibition of N-terminal GST-tagged full length human CDK4 (1 to 303 residues) expressed in Baculovirus expression system using DYRKtide F as substrate incubated for 1 hr by mobility shift assay
Sequence of Cyclin-dependent kinase 4 (P11802 whole entry, the tested form may be a part): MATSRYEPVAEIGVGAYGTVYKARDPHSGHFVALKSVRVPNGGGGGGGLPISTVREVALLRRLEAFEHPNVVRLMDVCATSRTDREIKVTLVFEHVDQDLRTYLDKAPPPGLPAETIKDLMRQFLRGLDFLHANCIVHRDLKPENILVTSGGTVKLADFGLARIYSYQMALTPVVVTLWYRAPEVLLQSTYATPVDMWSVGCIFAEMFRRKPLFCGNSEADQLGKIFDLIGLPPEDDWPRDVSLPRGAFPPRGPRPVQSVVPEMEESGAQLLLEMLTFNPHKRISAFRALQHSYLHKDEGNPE

[11] = molecular target: Tyrosine-protein kinase JAK2 (Homo sapiens, UniProt O60674); assay: Inhibition of N-terminal GST-tagged human JAK2 catalytic domain (826 to 1132 residues) expressed in Baculovirus expression system using srctide as substrate incubated for 1 hr by mobility shift assay
[12] = molecular target: Proto-oncogene tyrosine-protein kinase receptor Ret (Homo sapiens, UniProt P07949); assay: Inhibition of N-terminal GST-tagged human RET cytoplasmic domain (658 to 1114 residues) expressed in baculovirus expression system using CSKtide as substrate incubated for 1 hr by mobility shift assay
[13] = molecular target: Insulin-like growth factor 1 receptor (Homo sapiens, UniProt P08069); assay: Inhibition of N-terminal GST-tagged human IGF1R cytoplasmic domain (959 to 1367 residues) expressed in baculovirus expression system using IRS1 as substrate incubated for 1 hr by mobility shift assay
[14] = molecular target: Tyrosine-protein kinase BTK (Homo sapiens, UniProt Q06187); assay: Inhibition of N-terminal GST-tagged full length human BTK (2 to 659 residues) expressed in Baculovirus expression system using srctide as substrate incubated for 1 hr by mobility shift assay
Sequence of Tyrosine-protein kinase BTK (Q06187 whole entry, the tested form may be a part): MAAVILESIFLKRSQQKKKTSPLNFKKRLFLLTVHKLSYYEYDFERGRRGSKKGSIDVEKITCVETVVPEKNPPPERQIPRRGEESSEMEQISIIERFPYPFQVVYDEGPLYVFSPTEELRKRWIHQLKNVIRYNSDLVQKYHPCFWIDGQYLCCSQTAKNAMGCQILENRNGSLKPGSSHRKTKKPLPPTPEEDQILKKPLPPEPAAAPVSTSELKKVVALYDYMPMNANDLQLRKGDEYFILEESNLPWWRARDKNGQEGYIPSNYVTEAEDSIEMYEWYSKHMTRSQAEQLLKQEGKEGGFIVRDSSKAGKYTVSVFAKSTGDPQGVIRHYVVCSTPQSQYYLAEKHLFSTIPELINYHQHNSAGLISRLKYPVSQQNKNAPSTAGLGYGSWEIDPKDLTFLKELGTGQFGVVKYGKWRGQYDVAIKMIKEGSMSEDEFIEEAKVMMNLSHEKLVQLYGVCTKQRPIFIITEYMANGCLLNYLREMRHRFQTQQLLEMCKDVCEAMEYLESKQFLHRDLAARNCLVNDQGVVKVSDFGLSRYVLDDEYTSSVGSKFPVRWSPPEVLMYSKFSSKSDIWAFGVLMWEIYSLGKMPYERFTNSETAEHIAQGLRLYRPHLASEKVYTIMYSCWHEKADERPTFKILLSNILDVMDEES

Homo sapiens [15] = organism: Homo sapiens; assay: Selectivity index, ratio of IC50 for N-terminal GST-tagged human c-MET cytoplasmic domain (956 to 1390 residues) to IC50 for N-terminal GST-tagged human ALK cytoplasmic domain (1058 to 1620 residues)
Homo sapiens [16] = organism: Homo sapiens; assay: Selectivity index, ratio of IC50 for N-terminal GST-tagged full length human CDK4 (1 to 303 residues) to IC50 for N-terminal GST-tagged human ALK cytoplasmic domain (1058 to 1620 residues)
Homo sapiens [17] = organism: Homo sapiens; assay: Selectivity index, ratio of IC50 for FGFR (unknown origin) to IC50 for N-terminal GST-tagged human ALK cytoplasmic domain (1058 to 1620 residues)
Homo sapiens [18] = organism: Homo sapiens; assay: Selectivity index, ratio of IC50 for N-terminal GST-tagged human IGF1R cytoplasmic domain (959 to 1367 residues) to IC50 for N-terminal GST-tagged human ALK cytoplasmic domain (1058 to 1620 residues)
[19] = molecular target: T2, ALK tyrosine kinase receptor; assay: Inhibition of ALK phosphorylation in human H2228 cells incubated for 24 hrs by Western blot analysis; assay type: cell-based
Target sequence in this assay (Q9UM73 19-1620 limits assumed): as the sequence (Q9UM73 19-1620 L1196M limits assumed) above, with M1178L counted along it

[20] = molecular target: T2, ALK tyrosine kinase receptor; assay: Inhibition of ALK phosphorylation in human H2228 cells at 100 uM incubated for 24 hrs by Western blot analysis; assay type: cell-based
Target sequence in this assay (Q9UM73 19-1620 limits assumed): as the sequence (Q9UM73 19-1620 L1196M limits assumed) above, with M1178L counted along it

[21] = Tmax in Sprague-Dawley rat at 10 mg/kg, po by UPLC/MS/MS analysis; assay type: ADME, organism-based; details: in vivo
[22] = Half life in Sprague-Dawley rat at 10 mg/kg, po by UPLC/MS/MS analysis; assay type: ADME, organism-based; details: in vivo
[23] = AUCinfinity in Sprague-Dawley rat at 10 mg/kg, po by UPLC/MS/MS analysis; assay type: ADME, organism-based; design: dose 10 mg/kg, route oral, time infinity; details: in vivo
[24] = Oral bioavailability in Sprague-Dawley rat at 10 mg/kg by UPLC/MS/MS analysis; assay type: ADME, organism-based; details: in vivo
[25] = Cmax in Sprague-Dawley rat at 2 mg/kg, iv by UPLC/MS/MS analysis; assay type: ADME, organism-based; design: dose 2 mg/kg, route intravenous; details: in vivo
[26] = Half life in Sprague-Dawley rat at 2 mg/kg, iv by UPLC/MS/MS analysis; assay type: ADME, organism-based; details: in vivo
[27] = AUCt in Sprague-Dawley rat at 2 mg/kg, iv by UPLC/MS/MS analysis; assay type: ADME, organism-based; details: in vivo
[28] = AUCinfinity in Sprague-Dawley rat at 2 mg/kg, iv by UPLC/MS/MS analysis; assay type: ADME, organism-based; design: dose 2 mg/kg, route intravenous, time infinity; details: in vivo
[29] = Volume of distribution in Sprague-Dawley rat at 2 mg/kg, iv by UPLC/MS/MS analysis; assay type: ADME, organism-based; details: in vivo
[30] = Biovailability in Sprague-Dawley rat at 2 mg/kg, iv by UPLC/MS/MS analysis; assay type: ADME, organism-based; details: in vivo
[31] = molecular target: T1, Proto-oncogene tyrosine-protein kinase ROS; remark: listed apart in the source
Description: Inhibition of N-terminal GST-tagged human ROS1 cytoplasmic domain (1883 to 2347 residues) expressed in Baculovirus expression system using IRS1 as substrate incubated for 1 hr by mobility shift assay

[32] = molecular target: Epidermal growth factor receptor (Homo sapiens, UniProt P00533)
Description: Inhibition of N-terminal GST-tagged human EGFR cytoplasmic domain (669 to 1210 residues) expressed in Baculovirus expression system using srctide as substrate incubated for 1 hr by mobility shift assay

KARPAS-299 = assay: cells; details: Homo sapiens, KARPAS-299, 72 h
Description: Cytotoxicity against human KARPAS299 cells incubated for 72 hrs by MTT assay

NCI-H2228 = assay: cells; details: Homo sapiens, NCI-H2228, 72 h
Description: Cytotoxicity against human NCI-H2228 cells incubated for 72 hrs by MTT assay

BaF3 [33] = assay: cells; details: Mus musculus, BaF3, 72 h
BaF3 [34] = assay: cells; details: Mus musculus, BaF3, 72 h; remark: listed apart in the source
Description: Cytotoxicity against mouse BA/F3 cells incubated for 72 hrs by MTT assay

HCC78 = assay: cells; details: Homo sapiens, HCC78, 72 h
Description: Cytotoxicity against human HCC78 cells incubated for 72 hrs by MTT assay

A549 [35] = assay: cells; details: Homo sapiens, A549, 72 h
A549 [36] = assay: cells; details: Homo sapiens, A549, 72 h; remark: listed apart in the source
Description: Cytotoxicity against human A549 cells incubated for 72 hrs by MTT assay

in vivo = details: Sprague-Dawley, rat, po, 10 mg/kg

COc1cc(N2CCN(CCN(C)C)C2=O)ccc1Nc1ncc(Cl)c(Nc2ccccc2S(=O)(=O)C(C)C)n1
IC50 [1]: 0.573 µM
AUC(0-t) [2]: 3420 ng·h/mL
Ratio IC50 [3]: 7
IC50 [4]: 0.0012 µM
IC50 [5]: 0.00073 µM
IC50 [6]: 0.0067 µM
Ratio IC50 [7]: 30
IC50 [8]: 0.213 µM
IC50 [9]: > 1 µM
IC50 [10]: 0.417 µM
IC50 [11]: > 1 µM
IC50 [12]: > 1 µM
IC50 [13]: 0.109 µM
IC50 [14]: > 1 µM
Ratio IC50 (Homo sapiens [15]): 178
Ratio IC50 (Homo sapiens [16]): 348
Ratio IC50 (Homo sapiens [17]): 477
Ratio IC50 (Homo sapiens [18]): 91
inhibition [19]: Dose-dependent effect
inhibition [20]: Active
Tmax [21]: 5.3 h
half-life [22]: 7.4 h
AUC(0-inf) [23]: 4510 ng·h/mL
bioavailability [24]: 23%
Cmax [25]: 252 ng/mL
half-life [26]: 6.9 h
AUC(0-t) [27]: 1690 ng·h/mL
AUC [28]: 1965.3 ng·h/mL
Vd [29]: 9.93 L/kg
F [30]: 100%
IC50 [31]: 0.00043 µM
IC50 [32]: > 1 µM
IC50 (KARPAS-299): 0.014 µM
IC50 (NCI-H2228): 0.037 µM
IC50 (BaF3 [33]): 0.034 µM
IC50 (BaF3 [34]): 3.13 µM
IC50 (HCC78): 0.029 µM
IC50 (A549 [35]): 0.073 µM
IC50 (A549 [36]): > 5 µM
Cmax (in vivo): 297 ng/mL

Reference: ChEMBL document CHEMBL4346688, “Discovery of novel mutant-combating ALK and ROS1 dual inhibitors bearing imidazolidin-2-one moiety with reasonable PK properties” (Eur J Med Chem, 2019)
